Source: patent US8129527B2, “Analogs of dehydrophenylahistins and their therapeutic use” (Nereus Pharmacuticals, Inc., priority 2006, dated 2012)
Like-named read-outs stand apart in the source and are kept apart here.

Assays:
[1] = test system: HT-29 human colorectal carcinoma cells; assay: Cell growth inhibition assay, resazurin (Table 3.2); assay type: cell-based; details: HT-29, read-out: EC50 (M) Mean
Experimental: The cytotoxic effects of various derivatives of dehydrophenylahistin against HT-29 human colorectal carcinoma cells were determined.
HT-29 cells (ATCC; HTB-38) were maintained in ATCC recommended culture media and cultured in an incubator at 37° C. in 5% CO2 and 95% humidified air.
For cell growth inhibition assays, HT-29 cells were seeded at 5×10^3 cells/well in 90 μl complete media into a Corning 3904 black-walled, clear-bottom tissue culture plates and the plates were incubated overnight to allow cells to establish and enter log phase growth. 20 mM stock solutions of compounds were prepared in 100% DMSO and stored at −80° C. 10× concentrated serial dilutions of the compounds were prepared in culture medium for final concentrations ranging from 20 μM to […]. Ten μl volumes of the 10× serial dilutions were added to the test wells in triplicate and the plates returned to the incubator for 48 hours. The final concentration of DMSO was 0.25% in all samples.
(§1) Following 48 hours of drug exposure, 10 μl of 0.2 mg/ml resazurin (obtained from Sigma-Aldrich Chemical Co.) in Mg^2+, Ca^2+ free phosphate buffered saline was added to each well and the plates were returned to the incubator for 3-4 hours. […] Resazurin dye in medium without cells was used to determine the background, which was subtracted from the data for all experimental wells.

HT-29 human colon cells = assay: Tumor cytotoxicity assay, resazurin fluorescence, 48 h (Example 6); assay type: cell-based; details: for EC50: Homo sapiens; for cytotoxic activity against HT-29 cells / activity compared with tBu-dehydroPLH: in words
HT-29 cells = assay: Additional cytotoxicity assays, resazurin (Table 3.1); assay type: cell-based, human; details: Table 3.1; for EC50: Homo sapiens, HT-29, read-out: EC50 (M) Mean
Experimental: 10× concentrated serial dilutions of the two compounds were prepared in appropriate culture medium for final concentrations ranging from 2.0×10^−5 M to 2.0×10^−10 M. Ten μl volumes of the 10× serial dilutions were added to the test wells in triplicate and the plates returned to the incubator for 48 hours.
as §1, with “exposure” for “exposure,”, “PBS” for “phosphate buffered saline”, “dye” for “dye in medium”, “wells. The data were analyzed using Prism software (GraphPad Software).” for “wells.”
Additional cytotoxicity assays were performed as described above under this example, using Resazurin fluorescence as an indicator of cell viability.

[2] = HT-29, Table 3, read-out: EC50 (nM) HT-29
[3] = Table 8, electron-donating group, proliferation of HT-29 cells, read-out: EC50
[4] = HT-29, Table 5, synthetic potent dehydroPLH derivatives, read-out: EC50
[5] = Table 7, electron-withdrawing group, proliferation of HT-29 cells, read-out: EC50
[6] = Table 11, replacement with the heteroaryl ring, proliferation of HT-29 cells, read-out: EC50

## CC(C)(C)c1ocnc1/C=c1\[nH]c(=O)/c(=C/c2ccc3nsnc3c2)[nH]c1=O [Compound 2509, tBu-oxadelta-PLH-2,1,3-benzothiadiazole]
[1]
  EC50: 4.04e-07 M

## CC(C)(C)c1ocnc1/C=c1\[nH]c(=O)/c(=C/c2cccc(Oc3ccccc3)c2)[nH]c1=O [Compound 2501, tBu-oxadelta-PLH-3-phenoxy]
[1]
  EC50: 2.39e-08 M

## CC(C)(C)c1ocnc1/C=c1\[nH]c(=O)/c(=C/c2cc3ccccc3n2S(=O)(=O)c2ccccc2)[nH]c1=O [Compound 2508, tBu-oxadelta-PLH-1-(Ph-sulfo)-2-indole]
[1]
  EC50: > 6.32e-06 M

## CC(C)(C)c1[nH]cnc1/C=c1\[nH]c(=O)/c(=C/c2ccc(Cl)s2)[nH]c1=O [KPU-61, tBu-ΔPLH-5-Cl-2-thionyl]
HT-29 human colon cells; HT-29, Table 11, replacement with the heteroaryl ring, proliferation of HT-29 cells
  EC50: 184 nM

## CC(C)(C)c1[nH]cnc1/C=c1\[nH]c(=O)/c(=C/c2ccc3c(c2)OCO3)[nH]c1=O [KPU-22, tBu-ΔPLH-3,4-methylene-dioxy]
HT-29 human colon cells; [2]
  EC50: 82 nM
HT-29 human colon cells; [3]
  EC50: 82 nM

## COc1ccc(/C=c2\[nH]c(=O)/c(=C/c3nc[nH]c3C(C)(C)C)[nH]c2=O)cc1O [KPU-57, tBu-delta-PLH-3-OH-4-OMe]
HT-29 human colon cells; [3]
  EC50: > 20000 nM

## Cc1cccc(/C=c2\[nH]c(=O)/c(=C/c3nc[nH]c3C(C)(C)C)[nH]c2=O)c1C [KPU-90, 3-{(Z)-1-[5-(tert-Butyl)-1H-4-imidazolyl]methylidene}-6-[(Z)-1-(2,3-dimethylphenyl)methylidene]-2,5-piperazinedione]
HT-29 human colon cells
  potency relative to dehydroPLH: 16 times
  potency relative to tBu-dehydroPLH: 4 times
HT-29 human colon cells; [4]
  EC50: 3 nM
HT-29 human colon cells; HT-29, text to Table 5, most potent compound, read-out: EC50 value
  EC50: 3 nM

## CC(C)(C)c1[nH]cnc1/C=c1\[nH]c(=O)/c(=C/c2ccc(C#N)cc2)[nH]c1=O [KPU-43, tBu-ΔPLH-p-CN]
HT-29 human colon cells; [5]
  EC50: > 20000 nM

## Cc1[nH]cnc1/C=c1\[nH]c(=O)/c(=C/c2nc[nH]c2C(C)(C)C)[nH]c1=O [KPU-36, tBu-ΔPLH-5-Me-4-im]
HT-29 human colon cells; [6]
  EC50: 2790 nM

## COc1cc(/C=c2\[nH]c(=O)/c(=C/c3nc[nH]c3C(C)(C)C)[nH]c2=O)cc(OC)c1 [KPU-16, tBu-ΔPLH-3,5-diOMe]
HT-29 human colon cells; [2]
  EC50: 42 nM
HT-29 human colon cells; [4]
  EC50: 42 nM
HT-29 human colon cells
  cytotoxic activity against HT-29 cells: showed high activity

## Cc1ccc(/C=c2\[nH]c(=O)/c(=C/c3nc[nH]c3C(C)(C)C)[nH]c2=O)s1 [KPU-27, tBu-ΔPLH-5-Me-2-thienyl]
HT-29 human colon cells; [2]
  EC50: 80 nM
HT-29 human colon cells; [6]
  EC50: 80 nM

## COc1ccc(O)c(/C=c2\[nH]c(=O)/c(=C/c3nc[nH]c3C(C)(C)C)[nH]c2=O)c1 [KPU-54, tBu-ΔPLH-2-OH-5-OMe]
HT-29 human colon cells; [3]
  EC50: > 20000 nM

## CC(C)(C)c1[nH]cnc1/C=c1\[nH]c(=O)/c(=C/c2cccc3c2OCO3)[nH]c1=O [KPU-30, tBu-ΔPLH-2,3-methylendioxy]
HT-29 human colon cells; [3]
  EC50: 477 nM

## Cc1ccsc1/C=c1\[nH]c(=O)/c(=C/c2nc[nH]c2C(C)(C)C)[nH]c1=O [KPU-29, tBu-ΔPLH-3-Me-2-thienyl]
HT-29 human colon cells; [2]
  EC50: 44 nM
HT-29 human colon cells; [4]
  EC50: 44 nM
HT-29 human colon cells
  cytotoxic activity against HT-29 cells: exhibited activity

## COc1cccc2cc3c(=O)[nH]/c(=C\c4nc[nH]c4C(C)(C)C)c(=O)n3c12 [KPU-24, tBu-ΔPLH-cyclized-3-MeO]
HT-29 human colon cells; [2]
  EC50: 7040 nM
HT-29 human colon cells; Table 6, proliferation of HT-29 cells, read-out: EC50
  EC50: 7040 nM

## CC(C)(C)c1[nH]cnc1/C=c1\[nH]c(=O)/c(=C/c2ccccc2)[nH]c1=O [tBu-dehydrophenylahistin, 3-Z-Benzylidene-6-(5″-tert-butyl-1H-imidazol-4″-Z-ylmethylene)-piperazine-2,5-dione]
HT-29 human colon cells; Table 1 text
  greater cytotoxic activity in comparison with dehydrophenylahistin: ~4 times

## CC(C)(C)c1[nH]cnc1/C=c1\[nH]c(=O)/c(=C/c2cccc(OC(F)(F)F)c2)[nH]c1=O [KPU-80, TBu-ΔPLH-m-OCF3]
HT-29 human colon cells; [4]
  EC50: 13 nM
HT-29 human colon cells
  activity compared with tBu-dehydroPLH: higher activity than tBu-dehydroPLH

## Cc1cccc(/C=c2\[nH]c(=O)/c(=C/c3nc[nH]c3C(C)(C)C)[nH]c2=O)n1 [KPU-33, tBu-ΔPLH-3-Me-2-pyridyl]
HT-29 human colon cells; [6]
  EC50: > 20000 nM

## COc1cccc(/C=c2\[nH]c(=O)/c(=C/c3nc[nH]c3C(C)(C)C)[nH]c2=O)c1O [KPU-23, tBu-ΔPLH-2-OH-3-OMe (o-vanillin)]
HT-29 human colon cells; [2]
  EC50: 5870 nM
HT-29 human colon cells; [3]
  EC50: 5870 nM

## COc1ccc(F)c(/C=c2\[nH]c(=O)/c(=C/c3nc[nH]c3C(C)(C)C)[nH]c2=O)c1 [KPU-81, TBu-ΔPLH-2-F-5-OMe]
HT-29 human colon cells; [4]
  EC50: 19 nM
HT-29 human colon cells
  activity compared with tBu-dehydroPLH: higher activity than tBu-dehydroPLH

## C=CC(C)(C)c1[nH]cnc1/C=C1\NC(=O)C(Cc2ccccc2)N=C1OC (racemic) [Compound 2355, D,L-monolactim-PLH]
HT-29 cells
  EC50: > 2e-05 M
  % cytotox Mean: 13%

## CC(C)(C)c1ccc(O)c(/C=c2\[nH]c(=O)/c(=C/c3nc[nH]c3C(C)(C)C)[nH]c2=O)c1 [Compound 2433, tBu-delta-PLH-2-OH-5-tBU]
HT-29 cells
  EC50: 8.53e-06 M
  % cytotox Mean: 80%

## CC(C)(C)c1[nH]cnc1/C=c1\[nH]c(=O)/c(=C/c2cc(Cl)cc(Cl)c2)[nH]c1=O [Compound 2415, tBu-delta-PLH-3,5-diCl]
HT-29 cells
  EC50: 9.49e-08 M
  % cytotox Mean: 87%

## COc1ccc(/C=c2\[nH]c(=O)/c(=C/c3nc[nH]c3C(C)(C)C)[nH]c2=O)c(O)c1 [KPU-58, tBu-ΔPLH-2-OH-4-OMe]
HT-29 human colon cells; [3]
  EC50: > 20000 nM

## COc1cc(OC)c(/C=c2\[nH]c(=O)/c(=C/c3nc[nH]c3C(C)(C)C)[nH]c2=O)c(OC)c1 [KPU-45, tBu-ΔPLH-2,4,6-TriOMe]
HT-29 human colon cells
  cytotoxic activity against HT-29 cells: also showed activity

## Cn1cccc1/C=c1\[nH]c(=O)/c(=C/c2nc[nH]c2C(C)(C)C)[nH]c1=O [KPU-63, tBu-ΔPLH-N-Me-2-pyrrole]
HT-29 human colon cells; [6]
  EC50: 105 nM

## COc1cc(OC)c(/C=c2\[nH]c(=O)/c(=C/c3nc[nH]c3C(C)(C)C)[nH]c2=O)c(OC)c1 [Compound 2396, tBu-delta-PLH-2,4,6-TriOMe]
HT-29 cells
  EC50: > 2e-05 M
  % cytotox Mean: 2%

## CC(C)(C)c1[nH]cnc1/C=c1\[nH]c(=O)/c(=C/c2sccc2B(O)O)[nH]c1=O [Compound 2459, tBu-delta-PLH-3-B(OH)2-2-thienyl]
HT-29 cells
  EC50: 2.53e-08 M
  % cytotox Mean: 88%

## CC(C)(C)c1[nH]cnc1/C=c1\[nH]c(=O)/c(=C/c2cc([N+](=O)[O-])ccc2Cl)[nH]c1=O [Compound 2371, tBu-delta-PLH-2-Cl-5-NO2]
HT-29 cells
  EC50: 5.34e-08 M
  % cytotox Mean: 86%

## COc1ccc(/C=c2\[nH]c(=O)/c(=C/c3nc[nH]c3C(C)(C)C)[nH]c2=O)c(OC)c1OC [Compound 2368, tBu-delta-PLH-2,3,4-triOMe]
HT-29 cells
  EC50: 4.8e-06 M
  % cytotox Mean: 78%

## CC(C)(C)c1[nH]cnc1/C=c1\[nH]c(=O)/c(=C/c2cc(I)ccc2F)[nH]c1=O [Compound 2428, tBu-delta-PLH-2-F-5-I]
HT-29 cells
  EC50: 4.17e-08 M
  % cytotox Mean: 87%

## Cc1cccc(/C=c2\[nH]c(=O)/c(=C/c3nc[nH]c3C(C)(C)C)[nH]c2=O)c1C [Compound 2439, tBu-delta-PLH-2,3-di-Me]
HT-29 cells
  EC50: 2.96e-09 M
  % cytotox Mean: 87%

## CC(C)(C)c1[nH]cnc1/C=c1\[nH]c(=O)/c(=C/c2cc(Cl)ccc2[N+](=O)[O-])[nH]c1=O [KPU-52, tBu-ΔPLH-2-NO2-5-Cl]
HT-29 human colon cells; [5]
  EC50: 110 nM

## CC(C)(C)c1ccc(O)c(/C=c2\[nH]c(=O)/c(=C/c3ccccc3)[nH]c2=O)c1 [Compound 2422, tBu-delta-PLH-2-Hydroxybenzyl]
HT-29 cells
  EC50: > 2e-05 M
  % cytotox Mean: 14%

## Cc1ccsc1/C=c1\[nH]c(=O)/c(=C/c2nc[nH]c2C(C)(C)C)[nH]c1=O [Compound 2379, tBu-delta-PLH-3-Me-2-thienyl]
HT-29 cells
  EC50: 4.7e-08 M
  % cytotox Mean: 86%

## C=CC(C)(C)c1[nH]cnc1/C=C1\NC(=O)[C@H](Cc2ccccc2)NC1=O [Compound 2350, (−)-(S)-Halimide, (−)-(S)-Phenylahistin, (−)-(S)-PLH, reference compound]
HT-29 cells
  EC50: 3.94e-07 M
  % cytotox Mean: 87%

## CC(C)(C)c1[nH]cnc1/C=c1\[nH]c(=O)/c(=C/c2cc(Cl)ccc2[N+](=O)[O-])[nH]c1=O [Compound 2403, tBu-delta-PLH-2-NO2-5-Cl]
HT-29 cells
  EC50: 9.97e-08 M
  % cytotox Mean: 86%

## COc1cccc(/C=c2\[nH]c(=O)/c(=C/c3nc[nH]c3C(C)(C)C)[nH]c2=O)c1N [Compound 2455, tBu-delta-PLH-2-NH2-3-OMe]
HT-29 cells
  EC50: 3.49e-07 M
  % cytotox Mean: 87%

## CC(C)(C)c1[nH]cnc1/C=c1\[nH]c(=O)/c(=C/c2cc([N+](=O)[O-])ccc2Cl)[nH]c1=O [KPU-21, tBu-ΔPLH-2Cl-5-NO2]
HT-29 human colon cells; [2]
  EC50: 51 nM
HT-29 human colon cells; [5]
  EC50: 51 nM
